The nature of data set [1]: Stability in solution followed by absorption spectra over time. In kind it is physicochemical. To be noted: for fate in aqueous environment (aquation): DMSO/buffer 0.5% v/v pH 7.4, within 24 h, spectra supported by TD-DFT; for solubility in aqueous medium: inferred from reduction of optical density over time. The procedure:
Spectrofluorimetric-grade solvents were used for the photophysical investigations. The buffer solution (pH 7.4) was prepared by dissolving one phosphate buffer saline table in 200 mL of water. Compounds 1–3 were dissolved in DMSO and then diluted to reach a final concentration of 1 × 10^–5 M in DMSO as well as DMSO/buffer 0.5% v/v. A PerkinElmer Lambda 900 spectrophotometer was employed to obtain the UV–visible absorption spectra, using 10 mm path-length quartz cuvettes.
The photophysical properties of 1–3 in DMSO have been previously discussed.[13],[35] In order to investigate the tendency of the Pt(II) complexes to undergo hydrolysis reactions giving the corresponding aqua-complexes, their stability in aqueous solution was monitored spectrophotometrically, acquiring the absorption profiles over time (t = 0, 3, 6, and 24 h). In particular, absorption spectra were registered by dissolving 1–3 in DMSO then diluted in buffer solution (DMSO 0.5% v/v). Moreover, in order to follow a possible aquation reaction with a slower kinetics, absorption spectra were recorded dissolving 1–3 in DMSO containing a low water content, by using a nonanhydrous spectroscopic-grade solvent.

In data set [2] the test system is DNA of MDA-MB-231 cell line. Description: DNA-bound Pt(II) by ICP-MS. The class given is cell-based, human. How it is done:
First, 200,000 cells/well were seeded in the complete medium in a 12-well tray. The day after, the old media were discarded, and the cells were challenged with compound-containing media for 6 h (CisPt: 30 and 60 μM; 1: 25 and 50 μM; 2: 1 and 2 μM; 3: 50 and 100 μM). An equal percentage of DMSO was added to control samples. The cells were thus washed two times with cold phosphate buffered saline (PBS) and digested with 700 μL of a homemade digest buffer (Tris 50 mM pH 8, NaCl 100 mM, EDTA 100 mM, and SDS 1%). The suspensions were moved to vials, and 400 μL of NaCl-saturated solution was added to them. The suspensions were thus vortexed and centrifuged at 12,000 rpm for 5 min. The supernatants were retrieved, added with 500 μL of 2-propanol, vortexed, and centrifuged at 12,000 rpm for 15 min to let DNA precipitate. […] DNA-bound Pt(II) was quantified through inductively coupled plasma-mass spectrometry (ICP-MS), and data were normalized to DNA content quantified with NanoDrop Site.
(§1) (A and C) Cells were seeded in complete medium (400,000 cells/well); the day after old media were discarded and cells were incubated for 6 h with media-containing compounds at the indicated concentrations, then intracellular protein were extracted, and intracellular ^195Pt was evaluated as ng ^195Pt over protein concentration (A) and further normalized vs the compounds’ working concentrations provided (C). […]

The test system of data set [3] is MDA-MB-231 cell line. The data set can be described thus: Intracellular Pt(II) content by ICP-MS. The class given is cell-based, human. To be noted: 6 h, Figure 6A. The procedure: First, 200,000 cells/well were seeded in complete medium in a 12-well tray. […] These concentrations correspond to IC50 and IC50/2 of each compound according to our previous work aimed at analyzing the cytotoxic performance of these Pt(II) complexes in the MDA.MB.231 cell line.[13] […] An equal percentage of DMSO was added to control samples. Cells were thus washed two times with cold PBS and lysed with 200 μL of a homemade lysis buffer (Tris 50 mM pH 7, NaCl 150 mM, NP40 1% v/v, protease, and phosphatase inhibitors 1% v/v) for 30 min at 4 °C. The intracellular Pt(II) amount was quantified through ICP-MS (BRUKER aurora M90 ICP-MS, MA, USA), and data were normalized to the total protein content evaluated via bicinchoninic acid assay.
as §1, with “(C). Cisplatin was used as the positive control. An equal amount of DMSO was supplied in each experimental condition. Data are presented as mean ± SD of three different experiments; when invisible, the error bar is included into the bar line.” for “(C).”

Data set [4] concerns human triple-negative breast cancer cell line MDA-MB-231. Details: method as in doi:10.1002/aoc.5455. To be noted: cited from earlier work.
Data set [5] relates to Calf Thymus DNA (CT-DNA). The data set can be described thus: DNA binding experiment: UV–vis absorption with CT-DNA. To be noted: complex 50 μM, PBS pH 7.4, increasing CT-DNA. The procedure: In a quartz cuvette (path length 1 cm), the UV–vis spectra were recorded of a PBS buffer solution (pH 7.4)-containing complex (1, 2, or 3, 50 μM, 0.5% DMF). The UV–vis absorption spectra were successively recorded following each addition of aliquots of Calf Thymus DNA (CT-DNA, 50 μM) after an equilibration time of 1 h.[32],[33]

Data set [6] is described as follows: Experimental measurement of LogPow by RP-HPLC. In kind it is physicochemical. To be noted: for logPow^exp: RP-HPLC, water/methanol 80/20, 25 °C; for logPow (approximate): theoretical and experimental values in agreement. How it is done: Reverse phase high performance liquid chromatography (RP-HPLC) analysis was performed to correlate the hydrophobicity of the complexes with their retention time.

On the set-up of data set [7]: method as in PMID 21450275. To be noted: cited from earlier work.

Read-outs that look alike come from different tables or passages of the source. Marks after values point to notes of the source that are not given here.

For `CCCC[N+](CCCC)(CCCC)CCCC.O=C1c2ccccc2C(=O)c2c1ccc1c2[O][Pt-]([c]2ccccc2-c2ccccn2)[O]1` (stereo not shown) [Complex 1, NBu4[(PhPy)Pt(Aliz)]], in data set [1], the “fate in aqueous environment (aquation)” value is “complete detachment of the (O^O) ligand”. The “accumulation of platinum in the DNA, corrected for working concentration” value in data set [2] (2 μM 1 compared to cisplatin 60 and 150 μM 2, 6 h, Figure 6D) was 10 fold. The “cytosolic localization (intracellular Pt)” value in data set [3] (compared to cisplatin and the other compounds) is on record as “barely localizes into cytosol”. For the same compound, the IC50 in data set [4] is 1.9 ± 1.6 µM. Also, the “UV–vis spectral change on addition of CT-DNA” value (from here on “UV–vis spectral change”) in data set [5] is “decrease of the band at 545 nm”. Further, in data set [6], the “logPow^exp” value was 3.33 and the “logPow (approximate)” value was “around 3”.

As for `Brc1c(Br)c(Br)c2c(c1Br)[O][Pt-]([c]1ccccc1-c1ccccn1)[O]2.CCCC[N+](CCCC)(CCCC)CCCC` [Complex 2, NBu4[(PhPy)Pt(BrCat)]], in data set [1], the “fate in aqueous environment (aquation)” value is “converted to the corresponding mono-aquo complexes” and the “solubility in aqueous medium” value is “poor solubility”. Also, the “increase in DNA-bound ^195Pt compared to cisplatin 60 μM” value in data set [2] (highest tested concentration, 6 h, Figure 6B) is recorded as 1.6 fold. For the same compound, in data set [3] (highest tested concentration), the “intracellular protein-bound Pt compared to the highest cisplatin dose” value was found to be 3 fold. In addition, in data set [4], the IC50 was 52.8 ± 3.9 µM. For the same compound, the “UV–vis spectral change” value in data set [5] is listed as “decrease of the band at 545 nm”. For the same compound, in data set [6], the “logPow^exp” value worked out at 4.53 and the “logPow (approximate)” value is ~4.5.

Take `N.N.O=C1c2ccccc2C(=O)c2c1ccc1c2[O][Pt][O]1` [Complex 3, [(NH3)2Pt(Aliz)]]: in data set [1], the “fate in aqueous environment (aquation)” value is “converted to the corresponding mono-aquo complexes” and the “solubility in aqueous medium” value was “poor solubility”. Moreover, in data set [4], the half-inhibitory concentration (IC50) was 127 ± 2.7 µM. Also, the “UV–vis spectral change” value in data set [5] is reported as “decrease of the band at 545 nm”. In data set [6], the “logPow^exp” value is listed as 0.47.

On to `O=C1c2ccccc2C(=O)c2c1ccc(O)c2O` [alizarine], for which, in data set [6], the chromatographic logP amounted to 1.87.

With `N.N.O=C([O-])C1(C(=O)[O-])CCC1.[Pt+2]` [carboplatin], the “logPow^exp” value in data set [7] is recorded as -2.30 ^a.

The values are drawn from publication PMC9092348, “Cytotoxicity of Alizarine versus Tetrabromocathecol Cyclometalated Pt(II) Theranostic Agents: A Combined Experimental and Computational Investigation” (Inorganic Chemistry, 2022).
